Among the data in patent US20210317092A1 (BAYER PHARMA AKTIENGESELLSCHAFT, priority 2016, published 2021) are IC50 values, retold here.

Each structure is given as a SMILES string.

The target in the test is T1, human Bradykinin B1 receptor (Homo sapiens, UniProt P46663).
T1 construct: host or cells: CHO-K1
T1 sequence (P46663 1-353): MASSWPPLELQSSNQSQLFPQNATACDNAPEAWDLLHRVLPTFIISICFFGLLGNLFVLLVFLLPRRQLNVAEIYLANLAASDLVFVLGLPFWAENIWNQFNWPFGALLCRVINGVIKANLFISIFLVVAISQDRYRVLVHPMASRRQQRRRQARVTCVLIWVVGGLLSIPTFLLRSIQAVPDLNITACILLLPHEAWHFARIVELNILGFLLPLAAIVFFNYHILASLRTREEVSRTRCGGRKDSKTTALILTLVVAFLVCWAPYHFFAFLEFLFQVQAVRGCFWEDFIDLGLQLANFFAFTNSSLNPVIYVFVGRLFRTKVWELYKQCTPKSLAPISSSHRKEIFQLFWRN
The test is described as follows: Calcium flux Assay (FLIPR) with recombinant CHO-K1 cells expressing human Bradykinin B1 receptor, in presence (hB1 IC50) or absence (hB1 free IC50) of 0.1% BSA. The format is cell-based. To be noted: in absence of 0.1% BSA, read-out: hB1 free IC50. For orientation: A change in cytosolic calcium serves as a functional read-out for many receptors and channels.
As for `O=C(Nc1ccc(-n2cc(C(F)(F)F)cn2)c(-c2nnn[nH]2)c1)C1(c2ccc(OC(F)(F)F)cc2F)CC1` [Example 364, 1-[2-fluoro-4-(trifluoromethoxy)phenyl]-N-{3-(1H-tetrazol-5-yl)-4-[4-(trifluoromethyl)-1H-pyrazol-1-yl]phenyl}cyclopro-panecarboxa-mide], the IC50 is 12.7 nM.

As for `Cc1nc(C(F)(F)F)cn1-c1ccc(NC(=O)C2(c3ccc(OC(F)(F)F)cc3F)CC2)cc1-c1nnn[nH]1` [Example 365, 1-[2-Fluoro-4-(trifluoromethoxy)phenyl]-N-{4-[2-methyl-4-(trifluoromethyl)-1H-imidazol-1-yl]-3-(1H-tetrazol-5-yl)phenyl}cyclopro-panecarboxa-mide], the IC50 is 535 nM.

For the molecule `Cc1ccc(C2(C(=O)Nc3ccc(-n4ccc(C(F)(F)F)n4)c(-c4nnn[nH]4)c3)CC2)c(F)c1` [Example 366, 1-(2-Fluoro-4-methylphenyl)-N-{3-(1H-tetrazol-5-yl)-4-[3-(trifluoromethyl)-1H-pyrazol-1-yl]phenyl}cyclopro-panecarboxa-mide], the IC50 is 94.2 nM.

Take `Cc1ccc(C2(C(=O)Nc3ccc(-n4cnc(C(F)(F)F)c4)c(-c4nnn[nH]4)c3)CC2)c(F)c1` [Example 367, 1-(2-Fluoro-4-methylphenyl)-N-{3-(1H-tetrazol-5-yl)-4-[4-(trifluoromethyl)-1H-imidazol-1-yl]phenyl}cyclopro-panecarboxa-mide]: the IC50 was 61.2 nM. Take `Cc1ccc(C2(C(=O)Nc3ccc(-n4cc(C(F)(F)F)cn4)c(-c4nnn[nH]4)c3)CC2)c(F)c1` [Example 368, 1-(2-Fluoro-4-methylphenyl)-N-{3-(1H-tetrazol-5-yl)-4-[4-(trifluoromethyl)-1H-pyrazol-1-yl]phenyl}cyclopro-panecarboxa-mide]: the IC50 was 26 nM. Consider `Cc1ccc(C2(C(=O)Nc3ccc(-n4cc(C(F)(F)F)nc4C)c(-c4nnn[nH]4)c3)CC2)c(F)c1` [Example 369, 1-(2-Fluoro-4-methylphenyl)-N-{4-[2-methyl-4-(trifluoromethyl)-1H-imidazol-1-yl]-3-(1H-tetrazol-5-yl)phenyl}cyclopro-panecarboxa-mide], for which the IC50 stood at 1130 nM. As to `Cc1nc(C(F)(F)F)cn1-c1ccc(NC(=O)C2(c3ccc(C(F)(F)F)cc3F)CC2)cc1-c1nnn[nH]1` [Example 370, 1-[2-Fluoro-4-(trifluoromethyl)phenyl]-N-{4-[2-methyl-4-(trifluoromethyl)-1H-imidazol-1-yl]-3-(1H-tetrazol-5-yl)phenyl}cyclopro-panecarboxa-mide], the IC50 stood at 873 nM.

With `CCc1ccn(-c2ccc(NC(=O)C3(c4ccc(C)cc4F)CC3)cc2-c2nnn[nH]2)n1` [Example 371, N-[4-(3-ethyl-1H-pyrazol-1-yl)-3-(1H-tetrazol-5-yl)phenyl]-1-(2-fluoro-4-methylphenyl)cyclo-propanecar-boxamide], the IC50 was found to be 282 nM.

As for `CCc1ccn(-c2ccc(NC(=O)C3(c4ccc(C(F)(F)F)cc4F)CC3)cc2-c2nnn[nH]2)n1` [Example 372, N-[4-(3-Ethyl-1H-pyrazol-1-yl)-3-(1H-tetrazol-5-yl)phenyl]-1-[2-fluoro-4-(trifluoromethyl)phenyl]cyclopro-panecarboxamide], the IC50 was 31.1 nM.

On to `CCc1ccn(-c2ccc(NC(=O)C3(c4ccc(OC(F)(F)F)cc4F)CC3)cc2-c2nnn[nH]2)n1` [Example 373, N-[4-(3-Ethyl-1H-pyrazol-1-yl)-3-(1H-tetrazol-5-yl)phenyl]-1-[2-fluoro-4-(trifluoromethoxy)phenyl]cyclo-propanecarboxa-mide], for which the IC50 was found to be 24.2 nM. On to `CCc1ccn(-c2ccc(NC(=O)C3(c4cccc(Cl)c4)CC3)cc2-c2nnn[nH]2)n1` [Example 374, 1-(3-Chlorophenyl)-N-[4-(3-ethyl-1H-pyrazol-1-yl)-3-(1H-tetrazol-5-yl)phenyl]cyclopro-panecarboxa-mide], for which the IC50 was found to be 1890 nM. Consider `CCc1cnn(-c2ccc(NC(=O)C3(c4ccc(C)cc4F)CC3)cc2-c2nnn[nH]2)c1` [Example 375, N-[4-(4-Ethyl-1H-pyrazol-1-yl)-3-(1H-tetrazol-5-yl)phenyl]-1-(2-fluoro-4-methylphenyl)cy-clopropanecar-boxamide], for which the IC50 was determined as 60.6 nM. For `CCc1cnn(-c2ccc(NC(=O)C3(c4ccc(C(F)(F)F)cc4F)CC3)cc2-c2nnn[nH]2)c1` [Example 376, N-[4-(4-Ethyl-1H-pyrazol-1-yl)-3-(1H-tetrazol-5-yl)phenyl]-1-[2-fluoro-4-(trifluoromethyl)phenyl]cyclopro-panecarboxamide], the IC50 worked out at 12 nM.

Turning to `CCc1cnn(-c2ccc(NC(=O)C3(c4ccc(OC(F)(F)F)cc4F)CC3)cc2-c2nnn[nH]2)c1` [Example 377, N-[4-(4-ethyl-1H-pyrazol-1-yl)-3-(1H-tetrazol-5-yl)phenyl]-1-[2-fluoro-4-(trifluoromethoxy)phenyl]cyclo-propanecarboxa-mide], the IC50 amounted to 6.57 nM. Next, `CCc1cnn(-c2ccc(NC(=O)C3(c4cccc(Cl)c4)CC3)cc2-c2nnn[nH]2)c1` [Example 378, 1-(3-Chlorophenyl)-N-[4-(4-ethyl-1H-pyrazol-1-yl)-3-(1H-tetrazol-5-yl)phenyl]cyclopro-panecarboxa-mide]: 343 nM; `Cc1ccc(C2(C(=O)Nc3ccc(-n4ccc(C(C)(C)C)n4)c(-c4nnn[nH]4)c3)CC2)c(F)c1` [Example 379, N-[4-(3-tert-Butyl-1H-pyrazol-1-yl)-3-(1H-tetrazol-5-yl)phenyl]-1-(2-fluoro-4-methylphenyl)cy-clopropanecar-boxamide]: 257 nM; `CC(C)(C)c1ccn(-c2ccc(NC(=O)C3(c4ccc(OC(F)(F)F)cc4F)CC3)cc2-c2nnn[nH]2)n1` [Example 381, N-[4-(3-tert-Butyl-1H-pyrazol-1-yl)-3-(1H-tetrazol-5-yl)phenyl]-1-[2-fluoro-4-(trifluoromethoxy)phenyl]cyclo-propanecarboxa-mide]: 36.7 nM. Next, `CC(C)(C)c1ccn(-c2ccc(NC(=O)C3(c4cccc(Cl)c4)CC3)cc2-c2nnn[nH]2)n1` [Example 382, N-[4-(3-tert-Butyl-1H-pyrazol-1-yl)-3-(1H-tetrazol-5-yl)phenyl]-1-(3-chlorophenyl)cyclo-propanecarbox-amide]: 768 nM; `O=C(Nc1ccc(-c2cc3ccccc3s2)c(-c2nnn[nH]2)c1)C1(c2cccc(Cl)c2)CC1` [Example 383, N-[4-(1-benzothiophen-2-yl)-3-(1H-tetrazol-5-yl)phenyl]-1-(3-chlorophenyl)cyclo-propanecarbox-amide]: 142 nM. As to `O=C(Nc1ccc(-c2cc3ccccc3s2)c(-c2nnn[nH]2)c1)C1(c2ccc(C(F)(F)F)cc2F)CC1` [Example 384, N-[4-(1-benzothiophen-2-yl)-3-(1H-tetrazol-5-yl)phenyl]-1-[2-fluoro-4-(trifluoromethyl)phenyl]cyclopro-panecarboxamide], the IC50 came out at 14.9 nM.

Consider `O=C(Nc1ccc(-c2cc3ccccc3s2)c(-c2nnn[nH]2)c1)C1(c2ccc(F)c(F)c2)CC1` [Example 385, N-[4-(1-benzothiophen-2-yl)-3-(1H-tetrazol-5-yl)phenyl]-1-(3,4-difluorophenyl)cyclo-propanecar-boxamide], for which the IC50 came out at 54.7 nM. As to `O=C(Nc1ccc(-n2ccc(CC(F)(F)F)n2)c(-c2nnn[nH]2)c1)C1(c2cccc(Cl)c2)CC1` [Example 386, 1-(3-chlorophenyl)-N-{3-(1H-tetrazol-5-yl)-4-[3-(2,2,2-trifluoroethyl)-1H-pyrazol-1-yl]phenyl}cyclopro-panecarboxa-mide], the IC50 is 146 nM. In the case of `Cc1ccc(C2(C(=O)Nc3ccc(-n4ccc(CC(F)(F)F)n4)c(-c4nnn[nH]4)c3)CC2)c(F)c1` [Example 388, 1-(2-fluoro-4-methylphenyl)-N-{3-(1H-tetrazol-5-yl)-4-[3-(2,2,2-trifluoroethyl)-1H-pyrazol-1-yl]phenyl}cyclopro-panecarboxa-mide], the IC50 turned out to be 33.4 nM. In the case of `O=C(Nc1ccc(-n2cc(Cl)cn2)c(-c2nnn[nH]2)c1)C1(c2cccc(Cl)c2)CC1` [Example 391, 1-(3-chlorophenyl)-N-[4-(4-chloro-1H-pyrazol-1-yl)-3-(1H-tetrazol-5-yl)phenyl]cyclopro-panecarboxa-mide], the IC50 was 1890 nM. As to `Cc1ccc(C2(C(=O)Nc3ccc(-n4cc(Cl)cn4)c(-c4nnn[nH]4)c3)CC2)c(F)c1` [Example 393, N-[4-(4-chloro-1H-pyrazol-1-yl)-3-(1H-tetrazol-5-yl)phenyl]-1-(2-fluoro-4-methylphenyl)cy-clopropanecar-boxamide], the IC50 came out at 187 nM. With `O=C(Nc1ccc(-n2cc(Cl)cn2)c(-c2nnn[nH]2)c1)C1(c2ccc(C(F)(F)F)cc2F)CC1` [Example 394, N-[4-(4-chloro-1H-pyrazol-1-yl)-3-(1H-tetrazol-5-yl)phenyl]-1-[2-fluoro-4-(trifluoromethyl)phenyl]cyclopro-panecarboxamide], the IC50 amounted to 68.1 nM.

With `O=C(Nc1ccc(-n2cc(Cl)cn2)c(-c2nnn[nH]2)c1)C1(c2ccc(OC(F)(F)F)cc2F)CC1` [Example 395, N-[4-(4-chloro-1H-pyrazol-1-yl)-3-(1H-tetrazol-5-yl)phenyl]-1-[2-fluoro-4-(trifluoromethoxy)phenyl]cyclo-propanecarboxa-mide], the IC50 turned out to be 16.2 nM. Take `CC(C)c1cnn(-c2ccc(NC(=O)C3(c4cccc(Cl)c4)CC3)cc2-c2nnn[nH]2)c1` [Example 396, 1-(3-chlorophenyl)-N-[4-(4-isopropyl-1H-pyrazol-1-yl)-3-(1H-tetrazol-5-yl)phenyl]cyclopro-panecarboxa-mide]: the half-inhibitory concentration (IC50) worked out at 30.7 nM.

Usually IC50 stands for the concentration that gives 50% inhibition.
